Structures can show the parent of a compound that is named as a salt. Where two headings read alike, the source gives them in different places. A value given as a limit tells only on which side of the number the result lay.

The record followed here is US11352340B2, “Pyridine and pyridimine compounds as PI3K-gamma inhibitors” (Incyte Corporation, priority 2016, dated 2022).

Experiment [1] concerns Phosphorylated Ribosomal Protein S6 (RPS6) in THP-1 cells. Briefly: THP-1 RPS6 ELISA Assay. The following applies: MCP-1 stimulated, phospho-RPS6 ELISA, read-out: THP p-RPS6 ELISA IC50. It counts as cell-based, Human. Summed up: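 Serum-starved THP-1 cells (2×10^5/well, RPMI) preincubated with compound 2 h at 37° C, then stimulated with 10 nM MCP-1 for 15 min. Lysates assayed by phospho-RPS6 ELISA, absorbance 450 nm (540 nm correction); IC50 from percent inhibition versus log concentration.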

Experiment [2] deals with PI3Kγ (p110γ) Recombinant Human Protein (Homo sapiens (Human), UniProt P48736). The experiment can be described thus: PI3K-γ Scintillation Proximity Assay. It counts as biochemical. The following applies: read-out: PI3K-gamma SPA IC50. Summed up:
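Recombinant human p110γ (13 nM) with 20 μM PIP2 and 2 μM ATP plus 0.5 μCi [γ-33P]ATP in 20 mM MOPS pH 6.7, 10 mM MgCl2, 5 mM DTT, 0.03% CHAPS, 2% DMSO, 120 min at room temperature. Product captured on WGA SPA beads and counted; IC50 fitted from % of solvent control versus log concentration.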

Experiment [3] deals with PI3Kδ (p110δ/p85α) Recombinant Human Protein (Homo sapiens (Human), UniProt O00329). The experiment can be described thus: PI3Kδ Scintillation Proximity Assay. The format is biochemical. The settings on record: read-out: PI3K-delta SPA IC50. In a few lines: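 Recombinant human p110δ/p85α (3.4 nM) with 20 μM PIP2 and 2 μM ATP plus [γ-33P]ATP, in 20 mM MOPS pH 6.7, 10 mM MgCl2, 5 mM DTT, 0.03% CHAPS, 2% DMSO; 120 min at room temperature. Product captured on WGA SPA beads, scintillation counted; IC50 from percent-of-control curves.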
Sequence of PI3Kδ (p110δ/p85α) Recombinant Human Protein (O00329 whole entry): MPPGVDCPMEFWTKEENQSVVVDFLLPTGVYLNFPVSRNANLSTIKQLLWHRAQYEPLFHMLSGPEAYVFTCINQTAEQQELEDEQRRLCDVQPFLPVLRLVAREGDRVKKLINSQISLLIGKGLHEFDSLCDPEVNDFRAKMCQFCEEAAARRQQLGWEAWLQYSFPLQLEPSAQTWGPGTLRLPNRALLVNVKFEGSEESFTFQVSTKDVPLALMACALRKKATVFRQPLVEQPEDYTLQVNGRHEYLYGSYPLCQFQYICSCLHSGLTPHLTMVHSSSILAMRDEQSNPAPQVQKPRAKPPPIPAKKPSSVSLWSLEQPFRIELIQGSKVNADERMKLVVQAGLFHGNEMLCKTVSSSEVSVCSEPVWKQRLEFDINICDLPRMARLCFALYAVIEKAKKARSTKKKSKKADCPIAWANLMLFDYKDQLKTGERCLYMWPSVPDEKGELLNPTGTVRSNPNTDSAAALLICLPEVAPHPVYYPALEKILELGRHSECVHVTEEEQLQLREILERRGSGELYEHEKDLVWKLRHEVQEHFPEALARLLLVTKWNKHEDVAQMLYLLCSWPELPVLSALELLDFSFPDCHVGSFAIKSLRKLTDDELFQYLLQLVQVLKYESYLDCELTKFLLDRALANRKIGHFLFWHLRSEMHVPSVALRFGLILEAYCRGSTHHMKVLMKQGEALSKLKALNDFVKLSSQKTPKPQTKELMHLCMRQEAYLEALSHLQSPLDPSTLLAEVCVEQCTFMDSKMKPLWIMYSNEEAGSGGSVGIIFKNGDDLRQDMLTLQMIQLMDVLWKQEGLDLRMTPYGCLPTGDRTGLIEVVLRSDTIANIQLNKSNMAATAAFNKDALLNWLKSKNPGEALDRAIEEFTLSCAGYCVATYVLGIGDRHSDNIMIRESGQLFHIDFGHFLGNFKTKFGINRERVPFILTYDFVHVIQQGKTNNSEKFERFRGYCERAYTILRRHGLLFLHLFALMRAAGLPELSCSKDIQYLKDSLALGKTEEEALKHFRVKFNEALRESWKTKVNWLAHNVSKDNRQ
Sequence of PI3Kδ (p110δ/p85α) Recombinant Human Protein (P27986 whole entry partner): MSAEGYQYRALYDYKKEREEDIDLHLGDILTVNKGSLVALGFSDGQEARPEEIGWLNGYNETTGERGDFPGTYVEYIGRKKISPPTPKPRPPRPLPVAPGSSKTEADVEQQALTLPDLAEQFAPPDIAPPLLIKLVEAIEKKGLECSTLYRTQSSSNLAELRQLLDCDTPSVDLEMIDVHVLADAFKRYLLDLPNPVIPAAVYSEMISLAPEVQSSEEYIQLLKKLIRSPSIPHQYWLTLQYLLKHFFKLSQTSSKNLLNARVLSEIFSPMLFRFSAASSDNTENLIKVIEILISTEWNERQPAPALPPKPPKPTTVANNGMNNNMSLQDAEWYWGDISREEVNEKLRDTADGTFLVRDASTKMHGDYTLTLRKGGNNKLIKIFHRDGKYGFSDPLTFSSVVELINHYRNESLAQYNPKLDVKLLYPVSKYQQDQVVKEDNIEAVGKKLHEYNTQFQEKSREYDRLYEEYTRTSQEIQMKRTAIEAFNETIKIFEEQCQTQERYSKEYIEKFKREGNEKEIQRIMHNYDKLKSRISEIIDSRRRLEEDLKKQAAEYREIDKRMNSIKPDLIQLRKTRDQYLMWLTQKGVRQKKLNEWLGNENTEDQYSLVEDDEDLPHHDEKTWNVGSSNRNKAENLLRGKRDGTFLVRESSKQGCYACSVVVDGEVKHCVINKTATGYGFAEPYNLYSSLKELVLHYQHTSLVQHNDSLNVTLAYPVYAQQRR

Sequence of PI3Kγ (p110γ) Recombinant Human Protein (P48736 whole entry): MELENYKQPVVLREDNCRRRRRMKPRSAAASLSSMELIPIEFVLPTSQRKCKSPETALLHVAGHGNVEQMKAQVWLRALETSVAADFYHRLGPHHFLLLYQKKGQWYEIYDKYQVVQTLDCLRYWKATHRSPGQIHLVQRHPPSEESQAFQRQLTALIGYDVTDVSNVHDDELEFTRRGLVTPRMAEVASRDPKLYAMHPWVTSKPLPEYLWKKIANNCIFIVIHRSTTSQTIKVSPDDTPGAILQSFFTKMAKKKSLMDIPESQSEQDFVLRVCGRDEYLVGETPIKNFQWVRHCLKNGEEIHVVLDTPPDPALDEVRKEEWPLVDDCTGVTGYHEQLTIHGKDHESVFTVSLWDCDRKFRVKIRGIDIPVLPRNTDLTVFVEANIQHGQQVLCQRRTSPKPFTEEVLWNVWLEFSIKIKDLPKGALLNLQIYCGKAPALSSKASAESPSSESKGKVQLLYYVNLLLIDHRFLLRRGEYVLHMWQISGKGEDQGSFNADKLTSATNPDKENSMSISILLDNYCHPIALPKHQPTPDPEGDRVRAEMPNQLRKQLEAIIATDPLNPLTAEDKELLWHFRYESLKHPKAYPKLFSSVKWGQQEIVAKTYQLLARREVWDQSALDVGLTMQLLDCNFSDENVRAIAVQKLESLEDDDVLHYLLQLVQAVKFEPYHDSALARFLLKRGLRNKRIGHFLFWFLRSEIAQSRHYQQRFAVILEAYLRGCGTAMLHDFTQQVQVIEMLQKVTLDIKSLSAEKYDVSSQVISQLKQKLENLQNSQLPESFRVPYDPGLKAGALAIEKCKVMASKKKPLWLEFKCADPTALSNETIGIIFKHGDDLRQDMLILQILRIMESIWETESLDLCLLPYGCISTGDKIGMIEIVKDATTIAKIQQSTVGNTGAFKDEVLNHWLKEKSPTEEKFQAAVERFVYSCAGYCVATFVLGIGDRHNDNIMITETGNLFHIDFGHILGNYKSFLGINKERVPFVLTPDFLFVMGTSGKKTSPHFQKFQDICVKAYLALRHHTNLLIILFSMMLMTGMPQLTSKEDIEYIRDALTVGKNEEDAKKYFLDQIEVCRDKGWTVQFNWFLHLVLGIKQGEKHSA

For `Cc1nc(-c2cc(-c3cncc(C(=O)N4CCCC4)c3)ccn2)[nH]c1C` [Example 151, (2′-(4,5-Dimethyl-1H-imidazol-2-yl)-3,4′-bipyridin-5-yl)(pyrrolidin-1-yl)methanone], the IC50 is ≤ 300 nM in experiment [1] (Homo sapiens), ≤ 50 nM in experiment [2] and ≤ 50 nM in experiment [3].
Turning to `Cc1nc(-c2cc(-c3cncc(C(=O)N4CC(O)C4)c3)ccn2)[nH]c1C` [Example 152, (2′-(4,5-Dimethyl-1H-imidazol-2-yl)-3,4′-bipyridin-5-yl)(3-hydroxyazetidin-1-yl)methanone trifluoroacetate salt], the values for the IC50 in experiment [1] (Homo sapiens), in experiment [2] and in experiment [3] were 300 to 1000 nM, ≤ 50 nM and ≤ 50 nM, respectively.
`Cc1nc(-c2cc(-c3cncc(C(=O)N4CC(C#N)C4)c3)ccn2)[nH]c1C` [Example 153, 1-(2′-(4,5-Dimethyl-1H-imidazol-2-yl)-3,4′-bipyridine-5-carbonyl)azetidine-3-carbonitrile trifluoroacetate salt]: the IC50 in experiment [1] (Homo sapiens) is ≤ 300 nM; in experiment [2], ≤ 50 nM; in experiment [3] it was ≤ 50 nM.
As for `Cc1nc(-c2cc(-c3cncc(C(=O)N4CC[C@@H](F)C4)c3)ccn2)[nH]c1C` [Example 155, (R)-(2′-(4,5-Dimethyl-1H-imidazol-2-yl)-3,4′-bipyridin-5-yl)(3-fluoropyrrolidin-1-yl)methanone trifluoroacetate salt], the results for the IC50 in experiment [1] (Homo sapiens), in experiment [2] and in experiment [3] were ≤ 300 nM, ≤ 50 nM and ≤ 50 nM, respectively.
For `Cc1nc(-c2cc(-c3cncc(C(=O)N4CCC5(CCOCC5)CC4)c3)ccn2)[nH]c1C` [Example 156, (2′-(4,5-Dimethyl-1H-imidazol-2-yl)-3,4′-bipyridin-5-yl)(3-oxa-9-azaspiro[5.5]undecan-9-yl)methanone trifluoroacetate salt], the IC50 in experiment [1] (Homo sapiens) is 1000 to 5000 nM; in experiment [2], ≤ 50 nM; in experiment [3], ≤ 50 nM.
On to `Cc1nc(-c2cc(-c3cncc(C(=O)NC(C)C)c3)ccn2)[nH]c1C` [Example 157, 2′-(4,5-Dimethyl-1H-imidazol-2-yl)-N-isopropyl-3,4′-bipyridine-5-carboxamide trifluoroacetate salt], for which the IC50 was 1000 to 5000 nM in experiment [1] (Homo sapiens), ≤ 100 nM in experiment [2] and ≤ 500 nM in experiment [3].
On the same counts, the results for `Cc1nc(-c2cc(-c3cncc(C(=O)N4CCN(C5CCN(C)CC5)CC4)c3)ccn2)[nH]c1C` [Example 158, (2′-(4,5-Dimethyl-1H-imidazol-2-yl)-3,4′-bipyridin-5-yl)(4-(1-methylpiperidin-4-yl)piperazin-1-yl)methanone] are 1000 to 5000 nM, ≤ 50 nM and ≤ 100 nM.
With `CC(=O)N1CCN(C(=O)c2cncc(-c3ccnc(-c4nc(C)c(C)[nH]4)c3)c2)CC1` [Example 159, 1-(4-(2′-(4,5-Dimethyl-1H-imidazol-2-yl)-3,4′-bipyridine-5-carbonyl)piperazin-1-yl)ethanone trifluoroacetate salt], the IC50 was 1000 to 5000 nM in experiment [1] (Homo sapiens), ≤ 50 nM in experiment [2] and ≤ 100 nM in experiment [3].
As to `Cc1nc(-c2cc(-c3cncc(C(=O)NC4CCOCC4)c3)ccn2)[nH]c1C` [Example 160, 2′-(4,5-Dimethyl-1H-imidazol-2-yl)-N-(tetrahydro-2H-pyran-4-yl)-3,4′-bipyridine-5-carboxamide trifluoroacetate salt], the IC50 in experiment [1] (Homo sapiens) was 1000 to 5000 nM; in experiment [2], ≤ 50 nM; in experiment [3], ≤ 500 nM.
On the same counts, the results for `Cc1nc(-c2cc(-c3cncc(C(=O)N4CC[C@@H](N(C)C)C4)c3)ccn2)[nH]c1C` [Example 161, (R)-(2′-(4,5-Dimethyl-1H-imidazol-2-yl)-3,4′-bipyridin-5-yl)(3-(dimethylamino)pyrrolidin-1-yl)methanone trifluoroacetate salt] are ≤ 300 nM, ≤ 50 nM and ≤ 100 nM.
`Cc1nc(-c2cc(-c3cncc(C(=O)N4CC[C@@H](O)C4)c3)ccn2)[nH]c1C` [Example 163, (R)-(2′-(4,5-Dimethyl-1H-imidazol-2-yl)-3,4′-bipyridin-hydroxypyrrolidin-1-yl)methanone trifluoroacetate salt]: the IC50 in experiment [1] was ≤ 300 nM; in experiment [2], ≤ 50 nM; in experiment [3] it was ≤ 50 nM.
Regarding `Cc1nc(-c2cc(-c3cncc(C(=O)N4CCC5(CC4)COC5)c3)ccn2)[nH]c1C` [Example 165, (2′-(4,5-Dimethyl-1H-imidazol-2-yl)-3,4′-bipyridin-5-yl)(2-oxa-7-azaspiro[3.5]nonan-7-yl)methanone trifluoroacetate salt], the results for the IC50 in experiment [1] (Homo sapiens), in experiment [2] and in experiment [3] were ≤ 300 nM, ≤ 50 nM and ≤ 100 nM, respectively.
Turning to `Cc1nc(-c2cc(-c3cncc(C(=O)N4CCC(=O)C4)c3)ccn2)[nH]c1C` [Example 168, 1-(2′-(4,5-Dimethyl-1H-imidazol-2-yl)-3,4′-bipyridine-5-carbonyl)pyrrolidin-3-one trifluoroacetate salt], the IC50 in experiment [1] (Homo sapiens) is ≤ 300 nM; in experiment [2] it was ≤ 50 nM; in experiment [3], ≤ 50 nM.
In the case of `Cc1nc(-c2cc(-c3cncc(C(=O)N4C[C@H](CO)[C@@H](C)C4)c3)ccn2)[nH]c1C` [Example 172, ((3R,4R)-1-{[2′-(4,5-Dimethyl-1H-imidazol-2-yl)-3,4′-bipyridin-5-yl]carbonyl}-4-methylpyrrolidin-3-yl)methanol trifluoroacetate salt], the results for the IC50 in experiment [1] (Homo sapiens), in experiment [2] and in experiment [3] were 300 to 1000 nM, ≤ 50 nM and ≤ 50 nM, respectively.
Regarding `Cc1nc(-c2cc(-c3cncc(C(=O)N4CCC(F)(F)C4)c3)ccn2)[nH]c1C` [Example 173, 5-[(3,3-Difluoropyrrolidin-1-yl)carbonyl]-2′-(4,5-dimethyl-1H-imidazol-2-yl)-3,4′-bipyridine trifluoroacetate salt], the IC50 was ≤ 300 nM in experiment [1] (Homo sapiens), ≤ 50 nM in experiment [2] and ≤ 50 nM in experiment [3].
On to `Cc1nc(-c2cc(-c3cncc(C(=O)N4C5CCC4CC5)c3)ccn2)[nH]c1C` [Example 179, 5-(7-Azabicyclo[2.2.1]hept-7-ylcarbonyl)-2′-(4,5-dimethyl-1H-imidazol-2-yl)-3,4′-bipyridine trifluoroacetate salt], for which the results for the IC50 in experiment [1] (Homo sapiens), in experiment [2] and in experiment [3] were ≤ 300 nM, ≤ 50 nM and ≤ 100 nM, respectively.
Take `Cc1nc(-c2cc(-c3cncc(C(=O)N4CC(C)(C)C4)c3)ccn2)[nH]c1C` [Example 185, 5-[(3,3-Dimethylazetidin-1-yl)carbonyl]-2′-(4,5-dimethyl-1H-imidazol-2-yl)-3,4′-bipyridine trifluoroacetate salt]: the IC50 is ≤ 300 nM in experiment [1] (Homo sapiens), ≤ 50 nM in experiment [2] and ≤ 100 nM in experiment [3].
As for `Cc1nc(-c2cc(-c3cncc(C(=O)N4CCC(c5ccccc5)CC4)c3)ccn2)[nH]c1C` [Example 186, 2′-(4,5-Dimethyl-1H-imidazol-2-yl)-5-[(4-phenylpiperidin-1-yl)carbonyl]-3,4′-bipyridine trifluoroacetate salt], the figures for the IC50 in experiment [1] (Homo sapiens), in experiment [2] and in experiment [3] were ≤ 300 nM, ≤ 50 nM and ≤ 50 nM, respectively.
Take `Cc1nc(-c2cc(-c3cncc(C(=O)N4CC[C@H]5CCCC[C@@H]5C4)c3)ccn2)[nH]c1C` [Example 187, 2′-(4,5-Dimethyl-1H-imidazol-2-yl)-5-[(4aR,8aS)-octahydroisoquinolin-2(1H)-ylcarbonyl]-3,4′-bipyridine trifluoroacetate salt]: the figures for the IC50 in experiment [1] (Homo sapiens), in experiment [2] and in experiment [3] were 300 to 1000 nM, ≤ 50 nM and ≤ 100 nM, respectively.
